Assay results from publication PMC7006908 (PLoS ONE, 2020).
“And” between values parts separate entries of the source, which are not always exact repeats. Equal values may be shown once. Read-outs that look alike come from different tables or passages of the source.

Legend:
[1] = design: method as in PMID 29862467; settings: exposure-efficacy analysis in patients; cited from earlier work
[2] = LC-MS/MS quantification of Cmin in plasma samples from breast cancer patients (clinical study CRO-2018-83); format: in vivo, human; settings: for concentration at 15 h / concentration at 30 h: human, plasma, oral; for concentration at 15 h: patient 7, sample 9, PALBO 125 mg/day; for concentration at 30 h: patient 8, sample 10, RIBO 600 mg/day + LETRO 2.5 mg/day
Method: Preparation of calibration curve and QCs samples was conducted through the following steps: 1) 5 μL of working solutions were added to 95 μL of blank human plasma (dilution 1:20) and vortexed for 10 s; 2) a 10 μL-aliquot of this mix was added with 80 μL of cold IS working solution (see “Standard solutions preparation” section), vortexed and then centrifuged for 15 min at 16200 g and 4°C; 3) 70 μL of the supernatant were transferred to a polypropylene tube for the following analysis. […] The preparation of patients’ samples was conducted as following: patient plasma was thawed at room temperature, vortexed for 10 s and centrifuged, for 10 min, at 3000 g and 4°C; 10 μL of plasma was then treated according to steps 2) and 3).
The HPLC system was a SIL-20AC XR auto-sampler and LC-20AD UFLC XR pumps (Shimadzu, Tokyo, Japan). The mobile phases (MP) consisted of ultrapure water with 0.1% HCOOH (phase A) and methanol/isopropanol (9:1, v/v) with 0.1% HCOOH (phase B). The chromatographic separation was obtained on the Luna Omega Polar C18 column ([…], 100 Å, 50 x 2.1 mm) coupled with a Security Guard Cartridge (Polar, C18, 4 x 2.0 mm), both provided by Phenomenex (Castel Maggiore (BO), Italy). The mass spectrometry system used for the detection was an API 4000 triple quadrupole (AB SCIEX, Massachusetts, USA) with a TurboIonSpray source operating in positive ion mode. To optimize source and compound dependent parameters, solutions of each analyte at the concentration of 100 ng/mL were used with a flow rate of 20 μL/min. Data were processed with Analyst 1.6.3 and the quantification of the peaks was done with MultiQuant 2.1 (software package AB SCIEX).
The exclusion criteria were to be non-collaborative and/or unreliable patients and refusal of informed consent. Patients were asked to periodically (every two months) collect plasma samples for the estimation of PALBO or RIBO and/or LETRO Cmin during their therapy treatment.
Plasma was obtained immediately by centrifugation of the blood samples at 3000 g for 10 min at 4°C. Then the obtained plasma was split into two independent aliquots and stored at -80°C in two different freezers.
At present, each of the 10 patients’ samples collected were quantified in 2 separate runs during 2 different working days, to further assess the reproducibility of the proposed method. In fact, as recently introduced in the last version of the FDA guideline, incurred samples re-analysis (ISR) is necessary to show the reliability of the reported analyte concentrations obtained with a bioanalytical method. ISR is conducted by repeating the analysis of a subset of patients’ samples in separate runs. The two analyses can be considered equivalent if the percentage difference [expressed as: (repeat-original)*100/mean] between the first and the second concentration measured is within ±20% for at least 67% of the samples [23, 24].

[3] = Bench-top stability in human plasma, 4 h at room temperature; format: in vitro ADME; settings: for Acc. %, T = 4h (RT): % of nominal
Method: (§1) Stability tests were conducted using QCs prepared in triplicate at each concentration (L, M, H): bench-top stability was investigated after 4 h at room temperature; stability of the deproteinized QCs was evaluated in autosampler set at 4 °C re-analysing the samples 24, 48, and 72 h after the first injection; freeze/thaw stability was assessed by analysing three freshly prepared aliquots of each QCs concentration, and then again after one and two freeze/thaw cycles.

[4] = Long term stability of working solutions in methanol at -20°C; format: physicochemical; settings: for Acc. %, stored at -20ºC over 2 months (methanol): % of nominal
[5] = Long term stability in human plasma at -80°C; format: in vitro ADME; settings: for Acc. %, stored at -80ºC over 2 months (plasma): % of nominal
[6] = cited from earlier work
[7] = Stability of deproteinized QCs in autosampler at 4 °C; format: physicochemical; settings: for Acc. %, T = 72 h in autosampler (4°C): % of nominal
Method: as §1

[8] = plasma QC high: nominal 200.00 PALBO / 8000.00 RIBO / 400.00 LETRO ng/mL
[9] = plasma QC low: nominal 0.50 PALBO / 20.00 RIBO / 1.00 LETRO ng/mL
[10] = plasma QC medium: nominal 20.00 PALBO / 800.00 RIBO / 40.00 LETRO ng/mL
[11] = QC high: nominal 200.00 PALBO / 8000.00 RIBO / 400.00 LETRO ng/mL
[12] = QC low: nominal 0.50 PALBO / 20.00 RIBO / 1.00 LETRO ng/mL
[13] = QC medium: nominal 20.00 PALBO / 800.00 RIBO / 40.00 LETRO ng/mL
[14] = deproteinized QC high: nominal 200.00 PALBO / 8000.00 RIBO / 400.00 LETRO ng/mL
[15] = deproteinized QC low: nominal 0.50 PALBO / 20.00 RIBO / 1.00 LETRO ng/mL
[16] = deproteinized QC medium: nominal 20.00 PALBO / 800.00 RIBO / 40.00 LETRO ng/mL

Question: Which “LETRO plasma concentration associated with longer time to tumour progression” value [1] does the source give for `N#Cc1ccc(C(c2ccc(C#N)cc2)n2cncn2)cc1` [LETRO, letrozole] here?
Answer: ≥ 85.6 ng/mL

Question: What about the concentration at 15 h ([2]; LETRO 2.5 mg/day, last pill intake 15 h before sampling, read-out: I quantif. plasma concentration (Cmin)) of the same compound?
Answer: 2.8 ng/mL

Question: What about the concentration at 15 h ([2]; LETRO 2.5 mg/day, reanalysis in second run, read-out: II quantif. plasma concentration (Cmin)) of the same compound?
Answer: 2.9 ng/mL

Question: What about the concentration at 30 h ([2]; 30 h from last pills intake, read-out: I quantif. plasma concentration (Cmin)) of the same compound?
Answer: 46.8 ng/mL

Question: And the concentration at 30 h ([2]; reanalysis in second run, read-out: II quantif. plasma concentration (Cmin))?
Answer: 46.9 ng/mL

Question: What about the “II quantif. plasma concentration (Cmin)” value ([2]; patient 6, sample 8, PALBO 125 mg/day, LETRO 2.5 mg/day, reanalysis in second run) of the same compound?
Answer: 67.8 ng/mL

Question: What about the “Mean ± SD measured concentration, T = 4h (RT)” value (“Mean ± SD … (RT)” for short) [3, 8] of the same compound?
Answer: 372.54 ± 24.58 ng/mL

Question: And the “Acc. %, T = 4h (RT)” value [3, 8]?
Answer: 93.1%

Question: What about the “Mean ± SD … (RT)” value [3, 9] of the same compound?
Answer: 0.88 ± 0.06 ng/mL

Question: What about the “Acc. %, T = 4h (RT)” value [3, 9] of the same compound?
Answer: 88.2%

Question: And the “Mean ± SD … (RT)” value [3, 10]?
Answer: 37.95 ± 1.78 ng/mL

Question: What about the “Acc. %, T = 4h (RT)” value [3, 10] of the same compound?
Answer: 94.9%

Question: And the “Mean ± SD measured concentration, stored at -20ºC over 2 months (methanol)” value (shortened to “Mean ± SD … over 2 months (methanol)”) [4, 11]?
Answer: 413.47 ± 6.07 ng/mL

Question: What about the “Acc. %, stored at -20ºC over 2 months (methanol)” value (from here on “Acc. %, stored at -20ºC”) [4, 11] of the same compound?
Answer: 103.4%

Question: What about the “Mean ± SD … over 2 months (methanol)” value [4, 12] of the same compound?
Answer: 1.05 ± 0.03 ng/mL

Question: What about the “Acc. %, stored at -20ºC” value [4, 12] of the same compound?
Answer: 105.1%

Question: And the “Mean ± SD … over 2 months (methanol)” value [4, 13]?
Answer: 44.12 ± 1.25 ng/mL

Question: And the “Acc. %, stored at -20ºC” value [4, 13]?
Answer: 110.3%

Question: What about the “Mean ± SD measured concentration, stored at -80ºC over 2 months (plasma)” value (from here on “Mean ± SD … over 2 months (plasma)”) [5, 11] of the same compound?
Answer: 386.66 ± 6.61 ng/mL

Question: And the “Acc. %, stored at -80ºC over 2 months (plasma)” value (shortened to “Acc. %, stored at -80ºC”) [5, 11]?
Answer: 96.7%

Question: What about the “Mean ± SD … over 2 months (plasma)” value [5, 12] of the same compound?
Answer: 0.88 ± 0.01 ng/mL

Question: And the “Acc. %, stored at -80ºC” value [5, 12]?
Answer: 88.3%

Question: What about the “Mean ± SD … over 2 months (plasma)” value [5, 13] of the same compound?
Answer: 39.58 ± 0.90 ng/mL

Question: What about the “Acc. %, stored at -80ºC” value [5, 13] of the same compound?
Answer: 99.0%

Question: And the “LETRO mean plasma concentration (±SD)” value ([6]; ref 11 (Beer et al.))?
Answer: 107.0 ng/mL and 107.0 ± 62.9 ng/mL

Question: And the “LETRO mean plasma concentration (range)” value ([6]; ref 22 (Desta et al.))?
Answer: 89.7 (28.4–349.2) ng/mL

Question: What about the “Mean ± SD measured concentration, T = 72 h in autosampler (4°C)” value (shortened to “Mean ± SD measured concentration … (4°C)”) [7, 14] of the same compound?
Answer: 426.23 ± 4.43 ng/mL

Question: And the “Acc. %, T = 72 h in autosampler (4°C)” value [7, 14]?
Answer: 106.6%

Question: And the “Mean ± SD measured concentration … (4°C)” value [7, 15]?
Answer: 0.94 ± 0.07 ng/mL

Question: And the “Acc. %, T = 72 h in autosampler (4°C)” value [7, 15]?
Answer: 93.9%

Question: What about the “Mean ± SD measured concentration … (4°C)” value [7, 16] of the same compound?
Answer: 44.45 ± 0.19 ng/mL

Question: And the “Acc. %, T = 72 h in autosampler (4°C)” value [7, 16]?
Answer: 111.1%
